Numbered stars: 1 amine (or outer) side, 2 acyl side, 3 side chain; on linkers, the order of the positions; unused ones are H or OH. Bridge positions count the residues as written; N and C are the ends. Square brackets hold non-standard residues; d marks the D form. Peptide text beside a SMILES is read from it. * marks the point of attachment. ξ: configuration not given here. Phe(3-CF3) = N[C@@H](Cc1cccc(C(F)(F)F)c1)C(=O)O; Phe(4-CONH2) = NC(=O)c1ccc(C[C@H](N)C(=O)O)cc1; Phe(4-COOH) = N[C@@H](Cc1ccc(C(=O)O)cc1)C(=O)O; Bip = N[C@@H](Cc1ccc(-c2ccccc2)cc1)C(=O)O; Phe(3-Me) = Cc1cccc(C[C@H](N)C(=O)O)c1; Phe(4-F) = N[C@@H](Cc1ccc(F)cc1)C(=O)O; γGlu = O=C(O)[C@H](CCC(=O)[*:2])N[*:1]; NH(CH2)12COOH = O=C(O)CCCCCCCCCCCCN*; Bta = N[C@@H](Cc1csc2ccccc12)C(=O)O; Val(3-OH) = CC(C)(O)[C@H](N)C(=O)O; X6 = O=C(Cc1ccc(CN[*:1])cc1)[*:2]; hArg = N=C(N)NCCCC[C@H](N)C(=O)O; Cha = N[C@@H](CC1CCCCC1)C(=O)O; Thr(3ξ) = CC(O)[C@H](N)C(=O)O; 12Ado = NCCCCCCCCCCCC(=O)O; dOrn = NCCC[C@@H](N)C(=O)O; dDab = NCC[C@@H](N)C(=O)O; Carboxymethyl = O=C(O)C*; Nle = CCCC[C@H](N)C(=O)O; Orn = NCCC[C@H](N)C(=O)O; Aun = NCCCCCCCCCCC(=O)O; Dab = NCC[C@H](N)C(=O)O; Dap = NC[C@H](N)C(=O)O; AEEA = NCCOCCOCC(=O)O; Piv = CC(C)(C)C(=O)*
Biological target: T1, PD-1/PD-L1 interaction (PE-labeled human PD-L1-Ig binding to Jurkat cell line over-expressing human PD-1) (Homo sapiens, UniProt Q15116)
T1 construct: expressed in transfected cells; host or cells: Jurkat
Experiment: Jurkat-PD-1 Cell Binding High-Content Screening Assay (CBA)
Type: cell-based
Details: Jurkat cell line over-expressing human PD-1; PE-labeled PD-L1-Ig 20 nM final; read-out: Jurkat hPD1-PDL1 IC50
Method in brief: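 Binding of fluorescent PD-L1-Ig (20 nM final) to Jurkat-PD-1 cells was measured by automated imaging after 1 h, following a 2 h compound pre-treatment at 37° C.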

T1 sequence (Q15116 25-288): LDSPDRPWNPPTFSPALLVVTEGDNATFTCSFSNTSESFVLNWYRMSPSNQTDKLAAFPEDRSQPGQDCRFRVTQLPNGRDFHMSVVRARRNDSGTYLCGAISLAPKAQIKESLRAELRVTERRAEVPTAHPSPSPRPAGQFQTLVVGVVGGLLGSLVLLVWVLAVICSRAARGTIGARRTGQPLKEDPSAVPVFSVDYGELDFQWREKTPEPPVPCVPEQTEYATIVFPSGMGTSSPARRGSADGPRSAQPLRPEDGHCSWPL

Row | IC50 [µM] | SMILES
1 | 0.0132 | Cc1cccc(C[C@@H]2NC(=O)[C@H](CC(=O)O)NC(=O)[C@H](Cc3ccc(OCC(=O)O)cc3)NC(=O)[C@H](CCCNC(=N)N)NC(=O)CSC[C@@H](C(=O)N[C@@H](CCN)C(=O)NCCCCCCCCCCC(=O)O)NC(=O)[C@H](C(C)O)NC(=O)[C@H](C(C)C)NC(=O)[C@H](CC3CCCCC3)NC(=O)[C@H](CCN)NC(=O)[C@@H](CC(C)C)NC(=O)[C@H](CCCN)NC(=O)[C@H](CCCCNC(=O)C(C)(C)C)NC(=O)[C@H](Cc3ccc(-c4ccccc4)cc3)NC(=O)[C@H](Cc3ccc(O)cc3)NC2=O)c1 (stereo partly drawn) [Compound 3556] ({CH2CO}-RY(Carboxymethyl)D[Phe(3-Me)]Y[Bip]K(Piv)[Orn][dL][Dab][Cha]V[Thr(3ξ)]C[Dab][Aun]-OH; thioether N-14)
2 | 0.0109 | CC(C)C[C@H]1NC(=O)[C@H](CCCN)NC(=O)[C@H](C(C)C)NC(=O)[C@H](Cc2ccc(-c3ccccc3)cc2)NC(=O)[C@H](C(C)C)NC(=O)[C@H](Cc2c[nH]c3ccccc23)NC(=O)[C@H](CC(=O)O)NC(=O)[C@H](Cc2ccc(OCC(=O)O)cc2)NC(=O)[C@H](Cc2ccc(OCC(=O)O)cc2)NC(=O)CSC[C@@H](C(=O)N[C@@H](CCCCN)C(=O)NCCOCCOCC(=O)NCCCCCCCCCCC(=O)O)NC(=O)[C@H](CN)NC(=O)[C@H](C(C)C)NC(=O)[C@H](CC2CCCCC2)NC(=O)[C@H](CCN)NC1=O [Compound 2530] ({CH2CO}-Y(Carboxymethyl)Y(Carboxymethyl)DWV[Bip]V[Orn][dL][Dab][Cha]V[Dap]CK[AEEA][Aun]-OH; thioether N-14)
3 | 0.0401 | Cc1cccc(C[C@@H]2NC(=O)[C@H](CC(=O)O)NC(=O)[C@H](Cc3ccc(OCC(=O)O)cc3)NC(=O)[C@H](Cc3ccc(C(N)=O)cc3)NC(=O)CSC[C@@H](C(=O)N[C@@H](CCCCN)C(=O)NCCCCCCCCCCC(=O)O)NC(=O)[C@H](CCCCN)NC(=O)[C@H](C(C)O)NC(=O)[C@H](CC3CCCCC3)NC(=O)[C@H](CCN)NC(=O)[C@@H](CC(C)C)NC(=O)[C@H](CCCN)NC(=O)[C@H](Cc3ccc(O)cc3)NC(=O)[C@H](Cc3ccc(-c4ccccc4)cc3)NC(=O)[C@H](C(C)C)NC2=O)c1 (stereo partly drawn) [Compound 3600] ({CH2CO}-[Phe(4-CONH2)]Y(Carboxymethyl)D[Phe(3-Me)]V[Bip]Y[Orn][dL][Dab][Cha][Thr(3ξ)]KCK[Aun]-OH; thioether N-14)
4 | 0.0192 | CC(C)C[C@H]1NC(=O)[C@H](CCCN)NC(=O)[C@H](C(C)C)NC(=O)[C@H](Cc2ccc(-c3ccccc3)cc2)NC(=O)[C@H](C(C)C)NC(=O)[C@H](Cc2csc3ccccc23)NC(=O)[C@H](CC(=O)O)NC(=O)[C@H](Cc2ccc(OCC(=O)O)cc2)NC(=O)[C@H](CCCCNC(=N)N)NC(=O)CSC[C@@H](C(=O)NCC(=O)NCCOCCOCC(=O)N[C@H](CCCN)C(=O)NCCCCCCCCCCC(=O)O)NC(=O)[C@H](CO)NC(=O)[C@H](C(C)C)NC(=O)[C@H](CC2CCCCC2)NC(=O)[C@H](CCN)NC1=O [Compound 3065] ({CH2CO}-[hArg]Y(Carboxymethyl)D[Bta]V[Bip]V[Orn][dL][Dab][Cha]VSCG[AEEA][dOrn][Aun]-OH; thioether N-14)
5 | 0.141 | CCCC[C@@H]1NC(=O)CSC[C@@H](C(=O)N[C@H](CCN)C(=O)NCCOCCOCC(=O)NCCOCCOCC(=O)NCCCCCCCCCCCCC(=O)O)NC(=O)[C@H](CO)NC(=O)[C@H](C(C)(C)O)NC(=O)[C@H](CC2CCCCC2)NC(=O)[C@H](CCN)NC(=O)[C@@H](CC(C)C)NC(=O)[C@H](CCCN)NC(=O)[C@H](Cc2ccc(C(=O)O)cc2)NC(=O)[C@H](Cc2ccc(-c3ccccc3)cc2)NC(=O)[C@H](Cc2ccc(C(=O)O)cc2)NC(=O)[C@H](Cc2cccc(C(F)(F)F)c2)NC(=O)[C@H](CC(=O)O)NC(=O)[C@H](Cc2ccc(OCC(=O)O)cc2)NC1=O [Compound 3827] ({CH2CO}-[Nle]Y(Carboxymethyl)D[Phe(3-CF3)][Phe(4-COOH)][Bip][Phe(4-COOH)][Orn][dL][Dab][Cha][Val(3-OH)]SC[dDab][AEEA][AEEA]-{NH(CH2)12COOH}; thioether N-14)
6 | 0.0248 | Cc1cccc(C[C@@H]2NC(=O)[C@H](CC(=O)O)NC(=O)[C@H](Cc3ccc(OCC(=O)O)cc3)NC(=O)[C@H](CN)NC(=O)CSC[C@@H](C(=O)NCc3ccc(CC(=O)N[C@@H](CCCCN)C(=O)NCCCCCCCCCCC(=O)O)cc3)NC(=O)[C@H](CN)NC(=O)[C@H](C(C)C)NC(=O)[C@H](CC3CCCCC3)NC(=O)[C@H](CCN)NC(=O)[C@@H](CC(C)C)NC(=O)[C@H](CCCN)NC(=O)[C@H](C(C)C)NC(=O)[C@H](Cc3ccc(-c4ccccc4)cc3)NC(=O)[C@H](C(C)C)NC2=O)c1 [Compound 2011] ({CH2CO}-[Dap]Y(Carboxymethyl)D[Phe(3-Me)]V[Bip]V[Orn][dL][Dab][Cha]V[Dap]C[X6]K[Aun]-OH; thioether N-14)
7 | 0.0275 | CC(C)C[C@H]1NC(=O)[C@H](CCCN)NC(=O)[C@H](C(C)C)NC(=O)[C@H](Cc2ccc(-c3ccccc3)cc2)NC(=O)[C@H](C(C)C)NC(=O)[C@H](Cc2c[nH]c3ccccc23)NC(=O)[C@H](CC(=O)O)NC(=O)[C@H](Cc2c[nH]cn2)NC(=O)[C@H](CCCCNC(=N)N)NC(=O)CSC[C@@H](C(=O)N[C@@H](CCN)C(=O)NCCCCCCCCCCC(=O)O)NC(=O)[C@H](CCC(N)=O)NC(=O)[C@H](C(C)C)NC(=O)[C@H](CC2CCCCC2)NC(=O)[C@H](CCN)NC1=O [Compound 3273] ({CH2CO}-[hArg]HDWV[Bip]V[Orn][dL][Dab][Cha]VQC[Dab][Aun]-OH; thioether N-14)
8 | 0.0672 | CC(C)C[C@H]1NC(=O)[C@H](CCCN)NC(=O)[C@H](Cc2ccc(OCC(=O)O)cc2)NC(=O)[C@H](Cc2ccc(-c3ccccc3)cc2)NC(=O)[C@H](Cc2ccc(C(=O)O)cc2)NC(=O)[C@H](Cc2cccc(C(F)(F)F)c2)NC(=O)[C@H](CC(=O)O)NC(=O)[C@H](Cc2ccc(OCC(=O)O)cc2)NC(=O)[C@H](C(C)O)NC(=O)CSC[C@@H](C(=O)N[C@@H](CCN)C(=O)NCCOCCOCC(=O)N[C@@H](CCC(=O)NCCOCCOCC(=O)NCCCCCCCCCCCCC(=O)O)C(=O)O)NC(=O)[C@H](CCC(=O)O)NC(=O)[C@H](C(C)C)NC(=O)[C@H](CC2CCCCC2)NC(=O)[C@H](CCN)NC1=O (stereo partly drawn) [Compound 3902] ({CH2CO}-[Thr(3ξ)]Y(Carboxymethyl)D[Phe(3-CF3)][Phe(4-COOH)][Bip]Y(Carboxymethyl)[Orn][dL][Dab][Cha]VEC[Dab][AEEA][γGlu][AEEA]-{NH(CH2)12COOH}; thioether N-14)
9 | 0.0284 | Cc1cccc(C[C@@H]2NC(=O)[C@H](CC(=O)O)NC(=O)[C@H](Cc3ccc(OCC(=O)O)cc3)NC(=O)[C@H](Cc3ccc(F)cc3)NC(=O)CSC[C@@H](C(=O)N[C@@H](CCN)C(=O)NCCCCCCCCCCC(=O)O)NC(=O)[C@H](Cc3cnc[nH]3)NC(=O)[C@H](C(C)(C)O)NC(=O)[C@H](CC3CCCCC3)NC(=O)[C@H](CCN)NC(=O)[C@@H](CC(C)C)NC(=O)[C@H](CCCN)NC(=O)[C@H](Cc3ccc(OCC(=O)O)cc3)NC(=O)[C@H](Cc3ccc(-c4ccccc4)cc3)NC(=O)[C@H](Cc3ccc(OCC(=O)O)cc3)NC2=O)c1 [Compound 3798] ({CH2CO}-[Phe(4-F)]Y(Carboxymethyl)D[Phe(3-Me)]Y(Carboxymethyl)[Bip]Y(Carboxymethyl)[Orn][dL][Dab][Cha][Val(3-OH)]HC[Dab][Aun]-OH; thioether N-14)
10 | 0.0114 | Cc1cccc(C[C@@H]2NC(=O)[C@H](CC(=O)O)NC(=O)[C@H](Cc3ccc(OCC(=O)O)cc3)NC(=O)[C@H](CCCNC(=N)N)NC(=O)CSC[C@@H](C(=O)N[C@@H](CCN)C(=O)NCCCCCCCCCCC(=O)O)NC(=O)[C@H](C(C)O)NC(=O)[C@H](C(C)C)NC(=O)[C@H](CC3CCCCC3)NC(=O)[C@H](CCN)NC(=O)[C@@H](CC(C)C)NC(=O)[C@H](CCCN)NC(=O)[C@H](Cc3ccc(C(=O)O)cc3)NC(=O)[C@H](Cc3ccc(-c4ccccc4)cc3)NC(=O)[C@H](Cc3ccc(C(=O)O)cc3)NC2=O)c1 (stereo partly drawn) [Compound 3491] ({CH2CO}-RY(Carboxymethyl)D[Phe(3-Me)][Phe(4-COOH)][Bip][Phe(4-COOH)][Orn][dL][Dab][Cha]V[Thr(3ξ)]C[Dab][Aun]-OH; thioether N-14)
11 | 0.0299 | Cc1cccc(C[C@@H]2NC(=O)[C@H](CC(=O)O)NC(=O)[C@H](Cc3ccc(OCC(=O)O)cc3)NC(=O)[C@H](CCCCNC(=N)N)NC(=O)CSC[C@@H](C(=O)N[C@@H](CCN)C(=O)N[C@@H](CO)C(=O)NCCCCCCCCCCCC(=O)O)NC(=O)[C@H](C(C)O)NC(=O)[C@H](C(C)O)NC(=O)[C@H](CC3CCCCC3)NC(=O)[C@H](CCN)NC(=O)[C@@H](CC(C)C)NC(=O)[C@H](CCCN)NC(=O)[C@H](CCCNC(=N)N)NC(=O)[C@H](Cc3ccc(-c4ccccc4)cc3)NC(=O)[C@H](C(C)C)NC2=O)c1 (stereo partly drawn) [Compound 3537] ({CH2CO}-[hArg]Y(Carboxymethyl)D[Phe(3-Me)]V[Bip]R[Orn][dL][Dab][Cha][Thr(3ξ)][Thr(3ξ)]C[Dab]S[12Ado]-OH; thioether N-14)
12 | 0.0373 | CC(C)C[C@H]1NC(=O)[C@H](CCCN)NC(=O)[C@H](Cc2ccc(O)cc2)NC(=O)[C@H](Cc2ccc(-c3ccccc3)cc2)NC(=O)[C@H](C(C)C)NC(=O)[C@H](Cc2csc3ccccc23)NC(=O)[C@H](CC(=O)O)NC(=O)[C@H](Cc2ccc(OCC(=O)O)cc2)NC(=O)[C@H](CN)NC(=O)CSC[C@@H](C(=O)N[C@@H](CCN)C(=O)NCCOCCOCC(=O)NCCCCCCCCCCC(=O)O)NC(=O)[C@H](CCCN)NC(=O)[C@H](C(C)C)NC(=O)[C@H](CC2CCCCC2)NC(=O)[C@H](CCN)NC1=O [Compound 1304] ({CH2CO}-[Dap]Y(Carboxymethyl)D[Bta]V[Bip]Y[Orn][dL][Dab][Cha]V[Orn]C[Dab][AEEA][Aun]-OH; thioether N-14)

From patent publication US20260022142A1, “MACROCYCLIC IMMUNOMODULATORS” (Bristol-Myers Squibb Company, priority 2022, published 2026)
